Source: US8119681B2, “2-[1-phenyl-5-hydroxy or methoxy-4alpha-methyl-hexahydrocyclopenta [ƒ]indazole-5-YL]ethyl phenyl derivatives as glucocorticoid receptor ligands” (Merck Sharp & Dohme Corp., priority 2006, dated 2012)
Where two headings read alike, the source gives them in different places.

Legend:
[1] = molecular target: T1, human GR (Homo sapiens, UniProt P04150); experiment: Trans-Activation Modulation of Glucocorticoid Receptor (GRAMMER), MMTV-LUC reporter gene; type: cell-based; design: endogenous in cells; details: Table 1, Emax relative to 300 nM dexamethasone
T1 sequence (P04150 1-777): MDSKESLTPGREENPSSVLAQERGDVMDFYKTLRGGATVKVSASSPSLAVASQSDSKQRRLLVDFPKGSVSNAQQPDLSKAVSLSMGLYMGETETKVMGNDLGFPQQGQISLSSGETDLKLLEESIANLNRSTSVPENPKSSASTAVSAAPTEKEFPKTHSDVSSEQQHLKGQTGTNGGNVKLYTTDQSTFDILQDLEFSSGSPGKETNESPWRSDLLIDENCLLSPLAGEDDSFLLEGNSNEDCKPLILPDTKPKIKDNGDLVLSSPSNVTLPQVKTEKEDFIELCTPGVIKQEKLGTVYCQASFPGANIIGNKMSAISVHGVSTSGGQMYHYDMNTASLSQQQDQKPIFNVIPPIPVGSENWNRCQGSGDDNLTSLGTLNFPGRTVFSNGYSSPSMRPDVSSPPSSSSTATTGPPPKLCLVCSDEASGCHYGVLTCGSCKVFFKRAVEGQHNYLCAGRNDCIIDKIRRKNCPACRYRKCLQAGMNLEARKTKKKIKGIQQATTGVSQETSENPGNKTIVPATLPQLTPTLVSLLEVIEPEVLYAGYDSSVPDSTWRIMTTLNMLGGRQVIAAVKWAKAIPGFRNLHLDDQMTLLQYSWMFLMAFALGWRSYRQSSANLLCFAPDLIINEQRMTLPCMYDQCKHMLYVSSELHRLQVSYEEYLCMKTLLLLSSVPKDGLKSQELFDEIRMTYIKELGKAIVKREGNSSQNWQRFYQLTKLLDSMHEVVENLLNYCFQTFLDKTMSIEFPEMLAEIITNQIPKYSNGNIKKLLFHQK

[2] = molecular target: T1, human GR; experiment: Transrepression Assay (GITAR), TNFα-β-lactamase reporter gene in U937 cells; type: cell-based; design: U937 cells contain an endogenous glucocorticoid receptor (GR); endogenous in cells; host or cells: U937 cells stably transfected with the TNF-α promoter/β-lactamase reporter only; details: for EC50: IP = inflection point, read-out: Transrepression U937 Cells GITAR IP; for GITAR > GRAMM % SEP: separation of GITAR Emax over GRAMMER Emax; for Emax: U-937
Outline: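 Reporter readout used CCF2-AM loading for 70–90 min at room temperature after overnight (~18 h, 37 °C) PMA (5 ng/ml final) and LPS (100 ng/ml final) stimulation of compound-treated (30–45 min) TNFα-β-lactamase U937 cells expressing native GR. Activity was normalised to 100 nM dexamethasone repression.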

[3] = 100 nM dexamethasone = 100% activity, read-out: maximal activity in the transrepression assay
[4] = Table 1, U937 cells, activity repressed by 100 nM dexamethasone = 100%, read-out: Transrepression U937 Cells GITAR Emax (%)

| EC50 ([2]; Table 1, U937 cells) [nM] | GITAR > GRAMM % SEP ([2]; Table 1) [%] | Emax [2, 3] [%] | Emax [2, 4] [%] | Structure (SMILES) | Transactivation A549 Cells GRAMMER Emax (%) [1] [%] | Transrepression U937 Cells GITAR Emax (%) ([2]; Table 1, U937 cells, activity repressed by 100 nM dexamethasone = 100%) |
| --- | --- | --- | --- | --- | --- | --- |
| 95 | 37 | 5 to 100 | 77 | CC(C)(C)NC(=O)c1c(F)cccc1CC[C@]1(O)CCC2=Cc3c(cnn3-c3ccc(F)cc3)C[C@@]21C [Example 59, N-(tert-butyl)-2-fluoro-6-{2-[(4αS,5R)-1-(4-fluorophenyl)-5-hydroxy-4α-methyl-1,4,4α,5,6,7-hexahydrocyclopenta[f]indazol-5-yl]ethyl}benzamide] | – | – |
| 179 | – | 5 to 100 | 64 | C[C@]12Cc3cnn(-c4ccc(F)cc4)c3C=C1CC[C@@]2(O)CCc1ccccc1CNS(=O)(=O)C1CC1 [Example 5, N-(2-{2-[(4αS,5R)-1-(4-fluorophenyl)-5-hydroxy-4α-methyl-1,4,4α,5,6,7-hexahydrocyclopenta[f]indazol-5-yl]ethyl}benzyl)cyclopropanesulfonamide] | – | – |
| 223 | 42 | 5 to 100 | 66 | C[C@]12Cc3cnn(-c4ccc(F)cc4)c3C=C1CC[C@@]2(O)CCc1ccc(Cl)cc1C(N)=O [Example 170, 5-chloro-2-{2-[(4αS,5R)-1-(4-fluorophenyl)-5-hydroxy-4α-methyl-1,4,4α,5,6,7-hexahydrocyclopenta[f]indazol-5-yl]ethyl}benzamide] | – | – |
| 247 | 34 | 5 to 100 | 77 | C[C@]12Cc3cnn(-c4ccc(F)cc4)c3C=C1CC[C@@]2(O)CCc1cccc(F)c1[C@@H](N)C(F)(F)F [Example 152, (4αS,5R)-5-(2-{2-[(1R)-1-amino-2,2,2-trifluoroethyl]-3-fluorophenyl}ethyl)-1-(4-fluorophenyl)-4α-methyl-1,4,4α,5,6,7-hexahydrocyclopenta[f]indazol-5-ol] | – | – |
| 122 | 13 | 5 to 100 | 64 | C[C@]12Cc3cnn(-c4ccccc4)c3C=C1CC[C@@]2(O)CCc1ccccc1C(=O)NC1CC1 [Example 42, N-cyclopropyl-2-{2-[(4αS,5R)-5-hydroxy-4α-methyl-1-phenyl-1,4,4α,5,6,7-hexahydrocyclopenta[f]indazol-5-yl]ethyl}benzamide] | – | – |
| 199 | 34 | 5 to 100 | 78 | CCS(=O)(=O)Nc1ccccc1CC[C@]1(O)CCC2=Cc3c(cnn3-c3ccc(F)cc3)C[C@@]21C [Example 114, N-(2-{2-[(4αS,5R)-1-(4-fluorophenyl)-5-hydroxy-4α-methyl-1,4,4α,5,6,7-hexahydrocyclopenta[f]indazol-5-yl]ethyl}phenyl)ethanesulfonamide] | – | – |
| 87 | 41 | 5 to 100 | 78 | C[C@]12Cc3cnn(-c4ccc(F)cc4)c3C=C1CC[C@@]2(O)CCc1cccc(F)c1CC(N)=O [Example 194, 2-(2-fluoro-6-{2-[(4αS,5R)-1-(4-fluorophenyl)-5-hydroxy-4α-methyl-1,4,4α,5,6,7-hexahydrocyclopenta[f]indazol-5-yl]ethyl}phenyl)acetamide] | – | – |
| 119 | 43 | 5 to 100 | 67 | C=C(C)CNC(=O)c1c(F)cccc1CC[C@]1(O)CCC2=Cc3c(cnn3-c3ccc(F)cc3)C[C@@]21C [Example 44, 2-fluoro-6-{2-[(4αS,5R)-1-(4-fluorophenyl)-5-hydroxy-4α-methyl-1,4,4α,5,6,7-hexahydrocyclopenta[f]indazol-5-yl]ethyl}-N-(2-methylprop-2-en-1-yl)benzamide] | – | – |
| 287 | 20 | 5 to 100 | 40 | CC(C(N)=O)c1ccccc1CC[C@]1(O)CCC2=Cc3c(cnn3-c3ccc(F)cc3)C[C@@]21C (single isomer, unassigned) [Example 196] | – | – |
| 263 | 37 | 5 to 100 | 73 | CNC(=O)Cc1ccccc1CC[C@]1(O)CCC2=Cc3c(cnn3-c3ccc(F)cc3)C[C@@]21C [Example 23, 2-(2-{2-[(4αS,5R)-1-(4-fluorophenyl)-5-hydroxy-4α-methyl-1,4,4α,5,6,7-hexahydrocyclopenta[f]indazol-5-yl]ethyl}phenyl)-N-methylacetamide] | – | – |
| 77 | 32 | 5 to 100 | 68 | CCC(O)(C(N)=O)c1ccccc1CC[C@]1(O)CCC2=Cc3c(cnn3-c3ccc(F)cc3)C[C@@]21C (stereo partly drawn) [Example 199, 2-(2-{2-[(4αS,5R)-1-(4-fluorophenyl)-5-hydroxy-4α-methyl-1,4,4α,5,6,7-hexahydrocyclopenta[f]indazol-5-yl]ethyl}phenyl)-2-hydroxybutanamide] | – | – |

| Structure (SMILES) | EC50 ([2]; Table 1, U937 cells) [nM] | GITAR > GRAMM % SEP ([2]; Table 1) [%] | Emax [2, 3] [%] | Emax [2, 4] [%] | Transactivation A549 Cells GRAMMER Emax (%) [1] [%] | Transrepression U937 Cells GITAR Emax (%) ([2]; Table 1, U937 cells, activity repressed by 100 nM dexamethasone = 100%) |
| --- | --- | --- | --- | --- | --- | --- |
| C[C@]12Cc3cnn(-c4ccc(F)cc4)c3C=C1CC[C@@]2(O)/C=C/c1ccccc1S(N)(=O)=O [Example 160, 2-{(E)-2-[(4αS,5R)-1-(4-fluorophenyl)-5-hydroxy-4α-methyl-1,4,4α,5,6,7-hexahydrocyclopenta[f]indazol-5-yl]vinyl}benzenesulfonamide] | 274 | 42 | – | – | 30 | 72 |
